These are literature values, as cited in patent publication US5162307A, “Polymer bound elastase inhibitors” (Board of Trustees of the University of Kentucky, priority 1992, dated 1992).

The test system of one data set is guinea pigs. To be noted: guinea pig, in vivo.
The conditions of data set [1]: in vivo.
The subject of another data set is rabbits. To be noted: rabbit, in vivo.

In the case of “poly α, β-[N-(2-hydroxyethyl)-D,L-aspartamide] [PHEA]”, the “immune response (antigenicity)” value in the data set on guinea pigs is “no evidence of an immune response”. In addition, in data set [1], the “effect on the biosynthetic mechanism of the serum proteins or of blood cells” value is “no adverse effect” and the toxicity result is “lack toxicity”. In addition, in data set [1] (iv), the organ weight result is given as “do not induce any significant changes” and the total weight gain entry is reported as “do not induce any significant changes”. Besides, the “immune response (antigenicity)” value in the data set on rabbits is on record as “no evidence of an immune response”.
